# Results taken from article PMC11606603, “The membrane domains of mammalian adenylyl cyclases are lipid receptors” (eLife, 2024).
# pEC50: −log10 of the molar value. Several values for one entry are separate records, joined by “and”; a condition that tells them apart may be missing. Identical values can stand only once.
# Key:
# Format in all cases: biochemical
# mAC3 = target: T1, mAC3 (Homo sapiens, UniProt O60266); assay: AC assay, Gsα-stimulated mAC3 in membranes from transfected HEK293 cells; settings: for Effect of lipid on 300 nM Gsα-stimulated mAC3: 20 µM, in words; for mAC3 activity [%] (100% = 300nM Gsα stimulation): individual experiments
# T1 construct: Human mAC genes were from GenScript and fitted with a C-terminal FLAG-tag; FLAG (C); made in house; host or cells: HEK293, permanently transfected; membrane preparation
# Experimental: (§1) hAC sequences were from NCBI were: ADCY1: NM_021116.3; ADCY2: NM_020546.2; ADCY3: NM_004036.4; ADCY4: NM_001198568.2; ADCY5: NM_183357.2; ADCY6: NM_015270.4; ADCY7: NM_001114.4; ADCY8: NM_001115.2; ADCY9: NM_001116.3. Human mAC genes were from GenScript and fitted with a C-terminal FLAG-tag. […] The gene was synthesized by GenScript. HEK293 cells were maintained in Dulbeccos Modified Eagle Medium (DMEM) with 10% fetal bovine serum at 37°C and 5% CO2. Transfection with AC plasmids was with PolyJet (SignaGen, Frederick, MD, USA). Permanent cell lines were generated by selection for 7 days with 600 µg/ml G418 and maintained with 300 µg/ml For membrane preparation, cells were tyrpsinized, collected by centrifugation (3000 × g, 5 min) and lysed and homogenized in 20 mM HEPES, pH 7.5, 1 mM Ethylenediaminetetraacetic acid (EDTA), 2 mM MgCl2, 1 mM Dithiothreitol (DTT), one tablet of cOmplete, EDTA-free (per 50 ml) and 250 mM sucrose by 20 strokes in a potter homogenizer on ice. Debris was removed (5 min at 1000 × g, 0°C), membranes were collected at 100,000 × g, 60 min at 0°C, suspended and stored at −80°C in 20 mM MOPS, pH 7.5, 0.5 mM EDTA, 2 mM MgCl2. […] Three cerebral cortices were dissected and homogenized in 4.5 ml cold 48 mM Tris–HCl, pH 7.4, 12 mM MgC1_2, and 0.1 mM Ethylene glycol-bis(β-aminoethyl ether)-N,N,N′,N′-tetraacetic acid (EGTA) with a Polytron hand disperser (Kinematica AG, Switzerland). […] The pellet was washed once with 5 ml 1 mM KHCO3. The final suspension in 2 ml 1 mM KHCO3 was stored in aliquots at −80°C.
# (§2) In a volume of 10 μl, AC activities were measured using 1 mM ATP, 2 mM MgCl2, 3 mM creatine phosphate, 60 μg/ml creatine kinase, and 50 mM MOPS pH 7.5. The cAMP assay kit from Cisbio (Codolet, France) was used for detection according to the supplier’s instructions. For each assay, a cAMP standard curve was established. EC50 and IC50 values were calculated by GraphPad Prism version 8.4.3 for Windows, GraphPad Software, San Diego, CA, USA, https://www.graphpad.com .
# mAC1 = target: T2, mAC1 (Homo sapiens, UniProt Q08828); assay: AC assay, Gsα-stimulated mAC1 in membranes from transfected HEK293 cells; settings: 20 µM fatty acid; 300 nM Gsα; single experiments
# T2 construct: Human mAC genes were from GenScript and fitted with a C-terminal FLAG-tag; FLAG (C); made in house; host or cells: HEK293, permanently transfected; membrane preparation
# T2 sequence (Q08828 whole entry): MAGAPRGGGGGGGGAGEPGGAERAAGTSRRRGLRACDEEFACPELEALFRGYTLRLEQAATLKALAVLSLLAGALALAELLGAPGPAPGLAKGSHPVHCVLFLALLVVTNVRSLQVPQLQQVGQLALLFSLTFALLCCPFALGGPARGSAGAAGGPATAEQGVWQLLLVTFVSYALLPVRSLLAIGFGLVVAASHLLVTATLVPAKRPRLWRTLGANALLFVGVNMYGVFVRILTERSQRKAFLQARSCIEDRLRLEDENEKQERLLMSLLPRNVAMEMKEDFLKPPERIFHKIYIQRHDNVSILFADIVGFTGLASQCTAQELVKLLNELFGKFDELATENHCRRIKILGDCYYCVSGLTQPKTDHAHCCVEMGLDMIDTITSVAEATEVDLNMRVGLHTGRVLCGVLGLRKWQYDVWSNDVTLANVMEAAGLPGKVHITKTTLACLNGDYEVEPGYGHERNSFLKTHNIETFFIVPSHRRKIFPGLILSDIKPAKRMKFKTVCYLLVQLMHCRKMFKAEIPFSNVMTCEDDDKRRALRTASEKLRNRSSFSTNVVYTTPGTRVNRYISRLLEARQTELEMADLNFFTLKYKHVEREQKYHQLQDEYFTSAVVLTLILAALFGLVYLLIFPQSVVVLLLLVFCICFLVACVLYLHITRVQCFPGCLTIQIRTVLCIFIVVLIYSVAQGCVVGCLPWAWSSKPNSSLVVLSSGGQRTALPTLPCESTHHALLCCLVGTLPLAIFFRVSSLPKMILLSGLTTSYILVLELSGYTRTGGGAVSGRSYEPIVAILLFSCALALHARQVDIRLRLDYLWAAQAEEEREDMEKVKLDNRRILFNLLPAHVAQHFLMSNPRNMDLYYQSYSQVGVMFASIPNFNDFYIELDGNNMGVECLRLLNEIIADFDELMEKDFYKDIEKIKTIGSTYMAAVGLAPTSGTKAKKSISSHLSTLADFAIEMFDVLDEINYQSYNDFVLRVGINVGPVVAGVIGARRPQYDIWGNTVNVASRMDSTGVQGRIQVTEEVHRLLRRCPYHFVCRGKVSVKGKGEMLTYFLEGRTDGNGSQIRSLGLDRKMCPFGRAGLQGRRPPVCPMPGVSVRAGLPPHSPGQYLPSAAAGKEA
# Experimental: as §1, §2
# mAC2 = target: T3, mAC2 (Homo sapiens, UniProt Q08462); assay: AC assay, Gsα-stimulated mAC2 in membranes from transfected HEK293 cells; settings: Figure 5-figure supplement 1 left, 20 µM
# T3 construct: Human mAC genes were from GenScript and fitted with a C-terminal FLAG-tag; FLAG (C); made in house; host or cells: HEK293, permanently transfected; membrane preparation
# Experimental: as §1, §2
# mAC5 = target: T4, mAC5 (Homo sapiens, UniProt O95622); assay: AC assay, Gsα-stimulated mAC5 in membranes from transfected HEK293 cells
# T4 construct: Human mAC genes were from GenScript and fitted with a C-terminal FLAG-tag; FLAG (C); made in house; host or cells: HEK293, permanently transfected; membrane preparation
# Experimental: as §1, §2
# mAC6 = target: T5, mAC6 (Homo sapiens, UniProt O43306); assay: AC assay, Gsα-stimulated mAC6 in membranes from transfected HEK293 cells; settings: 20µM fatty acid concentration
# T5 construct: Human mAC genes were from GenScript and fitted with a C-terminal FLAG-tag; FLAG (C); made in house; host or cells: HEK293, permanently transfected; membrane preparation
# T5 sequence (O43306 whole entry): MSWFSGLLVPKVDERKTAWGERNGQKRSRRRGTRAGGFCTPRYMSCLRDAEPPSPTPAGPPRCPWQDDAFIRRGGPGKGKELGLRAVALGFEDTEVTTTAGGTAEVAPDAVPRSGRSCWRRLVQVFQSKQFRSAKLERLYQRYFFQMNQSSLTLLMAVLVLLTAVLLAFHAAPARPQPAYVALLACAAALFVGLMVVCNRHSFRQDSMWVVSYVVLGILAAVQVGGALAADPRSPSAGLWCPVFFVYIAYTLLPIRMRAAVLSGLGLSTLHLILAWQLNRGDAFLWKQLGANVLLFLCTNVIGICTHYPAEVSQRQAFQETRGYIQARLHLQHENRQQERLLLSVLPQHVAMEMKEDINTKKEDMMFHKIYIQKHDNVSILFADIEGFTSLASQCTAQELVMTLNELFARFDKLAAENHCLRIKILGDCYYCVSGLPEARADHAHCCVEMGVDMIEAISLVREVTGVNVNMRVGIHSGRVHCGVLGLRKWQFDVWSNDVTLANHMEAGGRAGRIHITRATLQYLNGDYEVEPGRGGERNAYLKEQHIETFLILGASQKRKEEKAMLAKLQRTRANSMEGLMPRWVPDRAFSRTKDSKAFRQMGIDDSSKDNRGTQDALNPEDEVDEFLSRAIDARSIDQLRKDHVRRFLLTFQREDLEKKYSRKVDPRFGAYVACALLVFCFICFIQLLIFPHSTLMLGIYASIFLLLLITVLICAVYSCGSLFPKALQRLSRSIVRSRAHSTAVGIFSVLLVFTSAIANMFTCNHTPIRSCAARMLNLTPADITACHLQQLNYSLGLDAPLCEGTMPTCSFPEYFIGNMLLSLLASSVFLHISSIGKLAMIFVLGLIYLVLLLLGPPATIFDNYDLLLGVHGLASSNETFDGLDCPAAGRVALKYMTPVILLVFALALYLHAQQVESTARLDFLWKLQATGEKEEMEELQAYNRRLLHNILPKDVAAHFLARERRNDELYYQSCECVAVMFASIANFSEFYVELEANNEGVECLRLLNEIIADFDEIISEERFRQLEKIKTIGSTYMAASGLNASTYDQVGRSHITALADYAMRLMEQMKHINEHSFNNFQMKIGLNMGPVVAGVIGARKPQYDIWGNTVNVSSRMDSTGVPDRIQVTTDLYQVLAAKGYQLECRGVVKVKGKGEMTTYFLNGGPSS
# Experimental: as §1, §2
# mAC7 = target: T6, mAC7 (Homo sapiens, UniProt P51828); assay: AC assay, Gsα-stimulated mAC7 in membranes from transfected HEK293 cells; settings: Figure 5-figure supplement 2 left, 20 µM
# T6 construct: Human mAC genes were from GenScript and fitted with a C-terminal FLAG-tag; FLAG (C); made in house; host or cells: HEK293, permanently transfected; membrane preparation
# T6 sequence (P51828 whole entry): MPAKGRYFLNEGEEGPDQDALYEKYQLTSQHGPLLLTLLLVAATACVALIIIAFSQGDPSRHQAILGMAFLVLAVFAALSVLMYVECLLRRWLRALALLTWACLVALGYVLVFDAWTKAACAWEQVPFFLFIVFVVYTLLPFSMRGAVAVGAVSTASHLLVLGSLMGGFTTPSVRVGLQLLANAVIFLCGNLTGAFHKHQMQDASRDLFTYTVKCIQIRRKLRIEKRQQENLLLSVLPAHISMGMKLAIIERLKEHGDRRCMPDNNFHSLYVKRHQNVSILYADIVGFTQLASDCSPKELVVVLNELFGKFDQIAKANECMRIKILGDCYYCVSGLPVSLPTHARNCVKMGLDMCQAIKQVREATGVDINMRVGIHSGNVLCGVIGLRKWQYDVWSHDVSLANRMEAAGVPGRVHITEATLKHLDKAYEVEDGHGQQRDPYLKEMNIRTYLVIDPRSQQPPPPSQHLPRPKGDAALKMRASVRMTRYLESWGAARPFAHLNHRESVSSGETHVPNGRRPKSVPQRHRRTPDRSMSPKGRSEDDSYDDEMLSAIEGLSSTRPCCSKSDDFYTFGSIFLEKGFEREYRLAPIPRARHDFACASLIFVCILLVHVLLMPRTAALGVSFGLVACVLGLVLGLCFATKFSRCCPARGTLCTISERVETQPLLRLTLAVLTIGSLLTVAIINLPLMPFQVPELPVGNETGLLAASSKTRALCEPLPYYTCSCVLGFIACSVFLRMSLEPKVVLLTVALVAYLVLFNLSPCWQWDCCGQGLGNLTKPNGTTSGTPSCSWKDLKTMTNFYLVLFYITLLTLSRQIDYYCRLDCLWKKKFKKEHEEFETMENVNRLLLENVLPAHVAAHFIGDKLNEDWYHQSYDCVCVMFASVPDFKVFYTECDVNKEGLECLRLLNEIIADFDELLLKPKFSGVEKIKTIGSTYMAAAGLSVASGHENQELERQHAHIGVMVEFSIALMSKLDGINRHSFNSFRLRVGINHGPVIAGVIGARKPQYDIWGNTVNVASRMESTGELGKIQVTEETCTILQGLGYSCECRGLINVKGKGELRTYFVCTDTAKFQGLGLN
# T6 sequence (P63092 2-394 Q227L partner): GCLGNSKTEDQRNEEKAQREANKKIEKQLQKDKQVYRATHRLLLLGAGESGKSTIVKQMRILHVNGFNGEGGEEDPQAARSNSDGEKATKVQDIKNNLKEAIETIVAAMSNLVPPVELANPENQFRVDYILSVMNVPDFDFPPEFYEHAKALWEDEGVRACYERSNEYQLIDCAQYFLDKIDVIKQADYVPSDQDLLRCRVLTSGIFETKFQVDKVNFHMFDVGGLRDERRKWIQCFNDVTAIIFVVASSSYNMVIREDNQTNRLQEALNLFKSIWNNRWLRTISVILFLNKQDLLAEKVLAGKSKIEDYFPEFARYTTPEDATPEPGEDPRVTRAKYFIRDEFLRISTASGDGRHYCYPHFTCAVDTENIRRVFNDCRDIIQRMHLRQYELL
# Experimental: as §1, §2
# mAC8 = target: T7, mAC8 (Homo sapiens, UniProt P40145); assay: AC assay, Gsα-stimulated mAC8 in membranes from transfected HEK293 cells; settings: 20µM fatty acid concentration
# T7 construct: Human mAC genes were from GenScript and fitted with a C-terminal FLAG-tag; FLAG (C); made in house; host or cells: HEK293, permanently transfected; membrane preparation
# T7 sequence (P40145 whole entry): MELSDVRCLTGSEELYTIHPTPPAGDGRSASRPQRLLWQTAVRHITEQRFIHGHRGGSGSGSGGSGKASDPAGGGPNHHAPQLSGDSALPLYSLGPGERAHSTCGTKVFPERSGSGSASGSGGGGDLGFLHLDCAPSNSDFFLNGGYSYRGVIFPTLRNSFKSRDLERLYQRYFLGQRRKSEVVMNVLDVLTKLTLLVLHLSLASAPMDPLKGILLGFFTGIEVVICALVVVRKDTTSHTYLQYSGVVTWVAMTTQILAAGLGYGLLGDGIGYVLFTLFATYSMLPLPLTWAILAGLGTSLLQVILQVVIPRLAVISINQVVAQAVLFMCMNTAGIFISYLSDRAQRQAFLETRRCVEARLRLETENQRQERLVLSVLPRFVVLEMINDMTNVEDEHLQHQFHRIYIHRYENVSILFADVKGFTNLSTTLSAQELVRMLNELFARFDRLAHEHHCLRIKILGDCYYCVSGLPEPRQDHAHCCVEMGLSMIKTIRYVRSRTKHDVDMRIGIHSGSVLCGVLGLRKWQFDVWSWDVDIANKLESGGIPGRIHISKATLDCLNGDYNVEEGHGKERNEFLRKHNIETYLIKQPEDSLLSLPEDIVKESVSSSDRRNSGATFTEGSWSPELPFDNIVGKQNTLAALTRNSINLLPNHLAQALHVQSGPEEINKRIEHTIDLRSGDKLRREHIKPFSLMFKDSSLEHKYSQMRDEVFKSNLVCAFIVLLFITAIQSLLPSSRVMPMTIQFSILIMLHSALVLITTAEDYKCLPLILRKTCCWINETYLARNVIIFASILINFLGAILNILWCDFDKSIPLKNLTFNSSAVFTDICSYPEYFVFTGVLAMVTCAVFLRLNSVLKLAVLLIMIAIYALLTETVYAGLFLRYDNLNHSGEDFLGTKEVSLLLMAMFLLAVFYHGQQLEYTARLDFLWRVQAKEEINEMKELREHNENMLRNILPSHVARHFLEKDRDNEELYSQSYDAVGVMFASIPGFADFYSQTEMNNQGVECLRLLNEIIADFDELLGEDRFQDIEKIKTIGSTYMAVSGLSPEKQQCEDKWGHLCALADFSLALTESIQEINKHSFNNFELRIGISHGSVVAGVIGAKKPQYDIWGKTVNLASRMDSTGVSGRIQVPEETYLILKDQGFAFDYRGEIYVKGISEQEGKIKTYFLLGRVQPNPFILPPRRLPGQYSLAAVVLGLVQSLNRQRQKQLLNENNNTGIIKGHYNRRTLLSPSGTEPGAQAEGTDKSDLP
# Experimental: as §1, §2
# mAC9 = target: T8, mAC9 (Homo sapiens, UniProt O60503); assay: AC assay, Gsα-stimulated mAC9 in membranes from transfected HEK293 cells; settings: for mAC9 activity (%);(100% = Gsα stimulation) stimulated by 300nM Gsα: single experiments
# T8 construct: Human mAC genes were from GenScript and fitted with a C-terminal FLAG-tag; FLAG (C); made in house; host or cells: HEK293, permanently transfected; membrane preparation
# Experimental: as §1, §2
# mAC4 = target: T9, mAC4 (Homo sapiens, UniProt Q8NFM4); assay: AC assay, Gsα-stimulated mAC4 in membranes from transfected HEK293 cells; settings: 20 µM fatty acid; 300 nM Gsα; single experiments
# T9 construct: Human mAC genes were from GenScript and fitted with a C-terminal FLAG-tag; FLAG (C); made in house; host or cells: HEK293, permanently transfected; membrane preparation
# T9 sequence (Q8NFM4 1-1077): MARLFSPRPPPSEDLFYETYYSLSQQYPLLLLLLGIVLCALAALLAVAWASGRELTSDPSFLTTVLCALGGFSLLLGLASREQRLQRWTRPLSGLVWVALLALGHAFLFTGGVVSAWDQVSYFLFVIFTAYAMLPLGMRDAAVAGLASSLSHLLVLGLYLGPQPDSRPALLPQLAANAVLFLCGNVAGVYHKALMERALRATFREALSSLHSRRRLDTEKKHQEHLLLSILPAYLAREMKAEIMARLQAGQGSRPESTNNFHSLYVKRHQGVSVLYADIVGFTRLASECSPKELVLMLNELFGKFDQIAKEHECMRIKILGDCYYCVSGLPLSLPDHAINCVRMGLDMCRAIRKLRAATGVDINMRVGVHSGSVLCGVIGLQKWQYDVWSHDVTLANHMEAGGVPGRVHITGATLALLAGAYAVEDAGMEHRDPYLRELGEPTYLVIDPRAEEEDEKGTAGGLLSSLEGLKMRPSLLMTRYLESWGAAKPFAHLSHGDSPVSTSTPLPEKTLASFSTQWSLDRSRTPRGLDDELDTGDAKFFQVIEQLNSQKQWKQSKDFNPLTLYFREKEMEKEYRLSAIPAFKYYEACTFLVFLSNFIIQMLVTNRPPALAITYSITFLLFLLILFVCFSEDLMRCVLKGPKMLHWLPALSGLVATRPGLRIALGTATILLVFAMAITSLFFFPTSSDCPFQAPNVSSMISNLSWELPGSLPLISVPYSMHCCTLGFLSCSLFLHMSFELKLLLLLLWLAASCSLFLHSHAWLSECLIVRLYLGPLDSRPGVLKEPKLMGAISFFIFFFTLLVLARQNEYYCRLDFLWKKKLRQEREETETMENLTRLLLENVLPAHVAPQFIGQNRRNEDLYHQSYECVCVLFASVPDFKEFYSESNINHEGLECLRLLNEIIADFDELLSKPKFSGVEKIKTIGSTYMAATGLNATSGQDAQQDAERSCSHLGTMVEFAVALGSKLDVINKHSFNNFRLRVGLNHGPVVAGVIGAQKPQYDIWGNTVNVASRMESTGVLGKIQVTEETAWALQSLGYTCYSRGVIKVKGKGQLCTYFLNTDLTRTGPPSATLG
# Experimental: as §1, §2
Structure (SMILES),Effect of lipid on 300 nM Gsα-stimulated mAC3 (mAC3),mAC3 activity [%] (100% = 300nM Gsα stimulation) (mAC3; fatty acid 20 µM),mAC1 activity [%] (100% = 300nM Gsα stimulation); 20µM fatty acid concentration (mAC1),mAC2 activity [%] (100% = 300nM Gsα stimulation); 20µM fatty acid concentration (mAC2),mAC5 activity [%] (100% = 300nM Gsα stimulation) (mAC5; 20µM fatty acid concentration),mAC6 activity [%] (100% = 300nM Gsα stimulation) (mAC6),mAC7 activity [%] (100% = 300nM Gsα stimulation); 20µM fatty acid concentration (mAC7),mAC8 activity [%] (100% = 300nM Gsα stimulation) (mAC8),mAC9 activity (%);(100% = Gsα stimulation) stimulated by 300nM Gsα (mAC9; 10 µM fatty acid),mAC4 activity [%] (100% = 300nM Gsα stimulation); 20µM fatty acid concentration (mAC4),other results
"CCCCC/C=C\C/C=C\CCCCCCCC(=O)O [Linoleic acid, Linoleic ((9Z,12Z)-octadecadienoic) acid]",efficient enhancers,376% and 503% and 335% and 235% and 456%,62% and 76% and 95%,118% and 99% and 198% and 131%,112% and 153%,105% and 198% and 128%,135% and 130%,119% and 212% and 115% and 129%,240% and 217% and 225% and 306% and 322% and 286% and 203%,,mAC9 activity (%);(100% = Gsα stimulation) stimulated by 300nM Gsα (mAC9; 1 µM fatty acid): 145% and 101% and 154% and 180%; mAC9 activity (%);(100% = Gsα stimulation) stimulated by 300nM Gsα (mAC9; 3 µM fatty acid): 129% and 139% and 117% and 119%; mAC9 activity (%);(100% = Gsα stimulation) stimulated by 300nM Gsα (mAC9; 6 µM fatty acid): 164% and 205% and 170% and 134% and 195%
"CCCCCCCC/C=C\CCCCCCCC(N)=O [Oleamide, Oleamide ((9Z)-octadecenamide)]",less efficacious,154% and 144% and 201% and 238% and 301% and 167% and 90% and 168%,99% and 109%,133% and 84%,97% and 111%,98% and 77%,107% and 99%,104% and 74%,,104% and 64% and 83%,
"CCCCCCCCCCCCCCCC(=O)O [Palmitic acid, Palmitic (hexadecanoic) acid]",less efficacious,279% and 263% and 138% and 341% and 182% and 165% and 224% and 164% and 153% and 126% and 243%,93% and 87% and 105%,108% and 97%,123% and 77% and 97%,91% and 114% and 61% and 106%,106% and 127% and 193% and 124%,,258% and 146% and 141% and 173% and 189% and 161% and 157%,76% and 92% and 77% and 101%,"Effect of lipid on 300 nM Gsα-stimulated mAC3 (mAC3; listed as palmitic acid): twofold; pEC50 (mAC3; enhancement of 300 nM Gsα-stimulated activity): 5.19; mAC3 activity [%] (100% = 300nM Gsα stimulation) (mAC3; fatty acid 0.5 µM): 100%; mAC3 activity [%] (100% = 300nM Gsα stimulation) (mAC3; fatty acid 1 µM): 166% and 108% and 118% (2×) and 87% and 83% and 122%; mAC3 activity [%] (100% = 300nM Gsα stimulation) (mAC3; fatty acid 3 µM): 122% and 126% and 125% and 136% and 114% and 107% and 116%; mAC3 activity [%] (100% = 300nM Gsα stimulation) (mAC3; fatty acid 6 µM): 107% and 145% and 118% and 129% and 73% and 158% and 259%; mAC3 activity [%] (100% = 300nM Gsα stimulation) (mAC3; fatty acid 10 µM): 188% and 338% and 172% and 339% and 112% and 94% and 165% and 197% and 126% and 128% and 237%; mAC5 activity [%] (100% = 300nM Gsα stimulation) (mAC5; fatty acid 0.5 µM, individual experiments): 100%; mAC5 activity [%] (100% = 300nM Gsα stimulation) (mAC5; fatty acid 1 µM, individual experiments): 71% and 83% and 111%; mAC5 activity [%] (100% = 300nM Gsα stimulation) (mAC5; fatty acid 3 µM, individual experiments): 66% and 80% and 162%; mAC5 activity [%] (100% = 300nM Gsα stimulation) (mAC5; fatty acid 6 µM, individual experiments): 50% and 108% and 125%; mAC5 activity [%] (100% = 300nM Gsα stimulation) (mAC5; fatty acid 10 µM, individual experiments): 57% and 89% and 94% and 103%; mAC5 activity [%] (100% = 300nM Gsα stimulation) (mAC5; fatty acid 20 µM, individual experiments): 123% (2×) and 77% and 97%; mAC9 activity (%);(100% = Gsα stimulation) stimulated by 300nM Gsα (mAC9; 20 µM fatty acid): 184%; pEC50 (mAC9; enhancement of 300 nM Gsα-stimulated activity, read-out: EC50 for mAC9): 5.07"
